Assays:
Settings in all cases: exposure time: 72 h
E21 [1] = patient-derived glioblastoma stem cells of mesenchymal subtype; test: phenotypic distance (Euclidean, principal components) from DMSO controls (arbitrary units); higher = stronger morphological change
FT3469 [2] = normal neural stem cell line; test: as above
E28 [3] = patient-derived glioblastoma stem cells of classical subtype; test: as above
E57 [4] = patient-derived glioblastoma stem cells of mesenchymal subtype; test: as above
E34 [5] = patient-derived glioblastoma stem cells of proneural subtype; test: as above
E13 [6] = patient-derived glioblastoma stem cells of classical subtype; test: as above
E31 [7] = patient-derived glioblastoma stem cells of proneural subtype; test: as above
E21 [8] = test: surviving fraction (nuclei count normalised to DMSO); higher = more cells surviving (less toxic)
FT3469 [9] = test: as above
E28 [10] = test: as above
E57 [11] = test: as above
E34 [12] = test: as above
E13 [13] = test: as above
E31 [14] = test: as above
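For phenotypic distance (Euclidean, principal components) from DMSO controls in this document: cell Painting imaging in 384-well plates, CellProfiler features reduced to at least 20 principal components, Euclidean distance versus same-plate DMSO vehicle wells (0.1% v/v), median over six images per well.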
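For surviving fraction (nuclei count normalised to DMSO) in this document: nuclei counted by high-content imaging of Hoechst-stained cells in laminin-coated 384-well plates, relative to 0.1% DMSO vehicle wells, with staurosporine as cell-death control.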

## CC(C)CC(=O)N[C@H](C(=O)N[C@H](C(=O)N[C@@H](CC(C)C)[C@@H](O)CC(=O)N[C@@H](C)C(=O)N[C@@H](CC(C)C)[C@@H](O)CC(=O)O)C(C)C)C(C)C [Pepstatin A]
E21 [1]; 4.1 nM
  phenotypic distance: 0.741
E21 [1]; 12.3 nM
  phenotypic distance: 0.806
E21 [1]; 37 nM
  phenotypic distance: 0.616
E21 [1]; 111.1 nM
  phenotypic distance: 0.484
E21 [1]; 333.3 nM
  phenotypic distance: 0.724
E21 [1]; 1000 nM
  phenotypic distance: 0.99
E21 [1]; 3000 nM
  phenotypic distance: 0.905
FT3469 [2]; 4.1 nM
  phenotypic distance: 0.569
FT3469 [2]; 12.3 nM
  phenotypic distance: 0.775
FT3469 [2]; 37 nM
  phenotypic distance: 0.359
FT3469 [2]; 111.1 nM
  phenotypic distance: 0.585
FT3469 [2]; 333.3 nM
  phenotypic distance: 0.718
FT3469 [2]; 1000 nM
  phenotypic distance: 1.15
FT3469 [2]; 3000 nM
  phenotypic distance: 0.856
E28 [3]; 4.1 nM
  phenotypic distance: 0.473
E28 [3]; 12.3 nM
  phenotypic distance: 0.719
E28 [3]; 37 nM
  phenotypic distance: 0.825
E28 [3]; 111.1 nM
  phenotypic distance: 1.73
E28 [3]; 333.3 nM
  phenotypic distance: 0.834
E28 [3]; 1000 nM
  phenotypic distance: 1.64
E28 [3]; 3000 nM
  phenotypic distance: 0.785
E57 [4]; 4.1 nM
  phenotypic distance: 0.859
E57 [4]; 12.3 nM
  phenotypic distance: 0.774
E57 [4]; 37 nM
  phenotypic distance: 0.554
E57 [4]; 111.1 nM
  phenotypic distance: 0.499
E57 [4]; 333.3 nM
  phenotypic distance: 1.2
E57 [4]; 1000 nM
  phenotypic distance: 1.56
E57 [4]; 3000 nM
  phenotypic distance: 1.57
E34 [5]; 4.1 nM
  phenotypic distance: 0.998
E34 [5]; 12.3 nM
  phenotypic distance: 1.15
E34 [5]; 37 nM
  phenotypic distance: 0.793
E34 [5]; 111.1 nM
  phenotypic distance: 1.47
E34 [5]; 333.3 nM
  phenotypic distance: 1.37
E34 [5]; 1000 nM
  phenotypic distance: 1.44
E34 [5]; 3000 nM
  phenotypic distance: 0.964
E13 [6]; 4.1 nM
  phenotypic distance: 3.07
E13 [6]; 12.3 nM
  phenotypic distance: 0.418
E13 [6]; 37 nM
  phenotypic distance: 0.54
E13 [6]; 111.1 nM
  phenotypic distance: 2.55
E13 [6]; 333.3 nM
  phenotypic distance: 0.565
E13 [6]; 1000 nM
  phenotypic distance: 1.06
E13 [6]; 3000 nM
  phenotypic distance: 1.04
E31 [7]; 4.1 nM
  phenotypic distance: 0.911
E31 [7]; 12.3 nM
  phenotypic distance: 0.626
E31 [7]; 37 nM
  phenotypic distance: 0.894
E31 [7]; 111.1 nM
  phenotypic distance: 0.552
E31 [7]; 333.3 nM
  phenotypic distance: 0.816
E31 [7]; 1000 nM
  phenotypic distance: 0.799
E31 [7]; 3000 nM
  phenotypic distance: 0.946
E21 [8]; 4.1 nM
  surviving fraction: 1.08
E21 [8]; 12.3 nM
  surviving fraction: 1.07
E21 [8]; 37 nM
  surviving fraction: 1.01
E21 [8]; 111.1 nM
  surviving fraction: 1.05
E21 [8]; 333.3 nM
  surviving fraction: 0.985
E21 [8]; 1000 nM
  surviving fraction: 0.986
E21 [8]; 3000 nM
  surviving fraction: 0.943
FT3469 [9]; 4.1 nM
  surviving fraction: 0.981
FT3469 [9]; 12.3 nM
  surviving fraction: 1.14
FT3469 [9]; 37 nM
  surviving fraction: 1.08
FT3469 [9]; 111.1 nM
  surviving fraction: 1.05
FT3469 [9]; 333.3 nM
  surviving fraction: 1.07
FT3469 [9]; 1000 nM
  surviving fraction: 0.993
FT3469 [9]; 3000 nM
  surviving fraction: 1.07
E28 [10]; 4.1 nM
  surviving fraction: 0.953
E28 [10]; 12.3 nM
  surviving fraction: 1.07
E28 [10]; 37 nM
  surviving fraction: 1.14
E28 [10]; 111.1 nM
  surviving fraction: 1.15
E28 [10]; 333.3 nM
  surviving fraction: 1.06
E28 [10]; 1000 nM
  surviving fraction: 0.989
E28 [10]; 3000 nM
  surviving fraction: 0.92
E57 [11]; 4.1 nM
  surviving fraction: 1.04
E57 [11]; 12.3 nM
  surviving fraction: 1.08
E57 [11]; 37 nM
  surviving fraction: 1.01
E57 [11]; 111.1 nM
  surviving fraction: 1.02
E57 [11]; 333.3 nM
  surviving fraction: 1.11
E57 [11]; 1000 nM
  surviving fraction: 0.978
E57 [11]; 3000 nM
  surviving fraction: 0.901
E34 [12]; 4.1 nM
  surviving fraction: 1.05
E34 [12]; 12.3 nM
  surviving fraction: 1.18
E34 [12]; 37 nM
  surviving fraction: 0.988
E34 [12]; 111.1 nM
  surviving fraction: 1.19
E34 [12]; 333.3 nM
  surviving fraction: 0.959
E34 [12]; 1000 nM
  surviving fraction: 1.03
E34 [12]; 3000 nM
  surviving fraction: 0.906
E13 [13]; 4.1 nM
  surviving fraction: 1.06
E13 [13]; 12.3 nM
  surviving fraction: 1.08
E13 [13]; 37 nM
  surviving fraction: 0.987
E13 [13]; 111.1 nM
  surviving fraction: 0.969
E13 [13]; 333.3 nM
  surviving fraction: 0.939
E13 [13]; 1000 nM
  surviving fraction: 1.07
E13 [13]; 3000 nM
  surviving fraction: 0.973
E31 [14]; 4.1 nM
  surviving fraction: 0.988
E31 [14]; 12.3 nM
  surviving fraction: 1.1
E31 [14]; 37 nM
  surviving fraction: 1
E31 [14]; 111.1 nM
  surviving fraction: 0.89
E31 [14]; 333.3 nM
  surviving fraction: 0.936
E31 [14]; 1000 nM
  surviving fraction: 0.912
E31 [14]; 3000 nM
  surviving fraction: 0.801

## OCCN1CCN(CCCN2c3ccccc3Sc3ccc(Cl)cc32)CC1 [Perphenazine]
E21 [1]; 4.1 nM
  phenotypic distance: 0.988
E21 [1]; 12.3 nM
  phenotypic distance: 0.761
E21 [1]; 37 nM
  phenotypic distance: 0.693
E21 [1]; 111.1 nM
  phenotypic distance: 1.08
E21 [1]; 333.3 nM
  phenotypic distance: 0.995
E21 [1]; 1000 nM
  phenotypic distance: 0.917
E21 [1]; 3000 nM
  phenotypic distance: 2.66
FT3469 [2]; 4.1 nM
  phenotypic distance: 0.72
FT3469 [2]; 12.3 nM
  phenotypic distance: 0.971
FT3469 [2]; 37 nM
  phenotypic distance: 0.546
FT3469 [2]; 111.1 nM
  phenotypic distance: 0.602
FT3469 [2]; 333.3 nM
  phenotypic distance: 0.84
FT3469 [2]; 1000 nM
  phenotypic distance: 0.79
FT3469 [2]; 3000 nM
  phenotypic distance: 1.58
E28 [3]; 4.1 nM
  phenotypic distance: 0.747
E28 [3]; 12.3 nM
  phenotypic distance: 0.879
E28 [3]; 37 nM
  phenotypic distance: 0.787
E28 [3]; 111.1 nM
  phenotypic distance: 0.725
E28 [3]; 333.3 nM
  phenotypic distance: 0.749
E28 [3]; 1000 nM
  phenotypic distance: 0.938
E28 [3]; 3000 nM
  phenotypic distance: 1.93
E57 [4]; 4.1 nM
  phenotypic distance: 1.04
E57 [4]; 12.3 nM
  phenotypic distance: 0.836
E57 [4]; 37 nM
  phenotypic distance: 0.782
E57 [4]; 111.1 nM
  phenotypic distance: 0.979
E57 [4]; 333.3 nM
  phenotypic distance: 0.789
E57 [4]; 1000 nM
  phenotypic distance: 1.66
E57 [4]; 3000 nM
  phenotypic distance: 2.41
E34 [5]; 4.1 nM
  phenotypic distance: 1.05
E34 [5]; 12.3 nM
  phenotypic distance: 0.866
E34 [5]; 37 nM
  phenotypic distance: 0.902
E34 [5]; 111.1 nM
  phenotypic distance: 2.15
E34 [5]; 333.3 nM
  phenotypic distance: 1.04
E34 [5]; 1000 nM
  phenotypic distance: 1.51
E34 [5]; 3000 nM
  phenotypic distance: 1.42
E13 [6]; 4.1 nM
  phenotypic distance: 2.64
E13 [6]; 12.3 nM
  phenotypic distance: 2.33
E13 [6]; 37 nM
  phenotypic distance: 3.22
E13 [6]; 111.1 nM
  phenotypic distance: 0.78
E13 [6]; 333.3 nM
  phenotypic distance: 1.14
E13 [6]; 1000 nM
  phenotypic distance: 3.07
E13 [6]; 3000 nM
  phenotypic distance: 3.61
E31 [7]; 4.1 nM
  phenotypic distance: 1.23
E31 [7]; 12.3 nM
  phenotypic distance: 0.866
E31 [7]; 37 nM
  phenotypic distance: 0.873
E31 [7]; 111.1 nM
  phenotypic distance: 1.86
E31 [7]; 333.3 nM
  phenotypic distance: 1.75
E31 [7]; 1000 nM
  phenotypic distance: 2.15
E31 [7]; 3000 nM
  phenotypic distance: 3.18
E21 [8]; 4.1 nM
  surviving fraction: 0.925
E21 [8]; 12.3 nM
  surviving fraction: 1.06
E21 [8]; 37 nM
  surviving fraction: 1.03
E21 [8]; 111.1 nM
  surviving fraction: 1.05
E21 [8]; 333.3 nM
  surviving fraction: 1.11
E21 [8]; 1000 nM
  surviving fraction: 0.954
E21 [8]; 3000 nM
  surviving fraction: 0.73
FT3469 [9]; 4.1 nM
  surviving fraction: 1.11
FT3469 [9]; 12.3 nM
  surviving fraction: 0.955
FT3469 [9]; 37 nM
  surviving fraction: 1.01
FT3469 [9]; 111.1 nM
  surviving fraction: 1.04
FT3469 [9]; 333.3 nM
  surviving fraction: 0.866
FT3469 [9]; 1000 nM
  surviving fraction: 0.938
FT3469 [9]; 3000 nM
  surviving fraction: 1.03
E28 [10]; 4.1 nM
  surviving fraction: 1.09
E28 [10]; 12.3 nM
  surviving fraction: 1.12
E28 [10]; 37 nM
  surviving fraction: 1.07
E28 [10]; 111.1 nM
  surviving fraction: 1.19
E28 [10]; 333.3 nM
  surviving fraction: 0.953
E28 [10]; 1000 nM
  surviving fraction: 1.09
E28 [10]; 3000 nM
  surviving fraction: 0.848
E57 [11]; 4.1 nM
  surviving fraction: 0.964
E57 [11]; 12.3 nM
  surviving fraction: 0.957
E57 [11]; 37 nM
  surviving fraction: 1
E57 [11]; 111.1 nM
  surviving fraction: 1.1
E57 [11]; 333.3 nM
  surviving fraction: 1.15
E57 [11]; 1000 nM
  surviving fraction: 1.12
E57 [11]; 3000 nM
  surviving fraction: 1.13
E34 [12]; 4.1 nM
  surviving fraction: 0.951
E34 [12]; 12.3 nM
  surviving fraction: 1.05
E34 [12]; 37 nM
  surviving fraction: 1.1
E34 [12]; 111.1 nM
  surviving fraction: 1.05
E34 [12]; 333.3 nM
  surviving fraction: 0.994
E34 [12]; 1000 nM
  surviving fraction: 1.19
E34 [12]; 3000 nM
  surviving fraction: 0.986
E13 [13]; 4.1 nM
  surviving fraction: 0.93
E13 [13]; 12.3 nM
  surviving fraction: 0.94
E13 [13]; 37 nM
  surviving fraction: 0.849
E13 [13]; 111.1 nM
  surviving fraction: 0.98
E13 [13]; 333.3 nM
  surviving fraction: 0.964
E13 [13]; 1000 nM
  surviving fraction: 1.05
E13 [13]; 3000 nM
  surviving fraction: 0.837
E31 [14]; 4.1 nM
  surviving fraction: 0.97
E31 [14]; 12.3 nM
  surviving fraction: 1.07
E31 [14]; 37 nM
  surviving fraction: 1.08
E31 [14]; 111.1 nM
  surviving fraction: 1.14
E31 [14]; 333.3 nM
  surviving fraction: 1.18
E31 [14]; 1000 nM
  surviving fraction: 1.24
E31 [14]; 3000 nM
  surviving fraction: 0.912
